The values below come from PubChem BioAssay (NCI).

Some test systems named below: CAKI-1 renal; HCC-2998 colon; A549 NSCLC; SF-539 CNS; NCI-H226 lung; SW-620 colon; SK-MEL-28 melanoma; OVCAR-3 ovarian; SK-OV-3 ovarian; SNB-75 CNS.
Common to all, as to assay: growth of human tumour cells (NCI), 48 h

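Protocol summary: plate cells (96-well), add compound at 5 concentrations, incubate 48 h, interpolate endpoints linearly. GI50: concentration for 50% inhibition of growth. Definition used: TGI = concentration required for complete inhibition of growth.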

As to `COC(=O)C1=C(C)N(NC(N)=O)C2(N)N(NC(N)=O)C(C)=C(C(=O)OC)C12C(=O)OC` (stereo not drawn), the TGI in the assay with CAKI-1 renal, in the assay on HCC-2998 colon, in the assay on A549 NSCLC, in the assay with SF-539 CNS, in the assay on NCI-H226 lung and with SW-620 colon was more than 100 µM in each case. Also, the TGI with SK-MEL-28 melanoma was more than 100 µM; with OVCAR-3 ovarian it was more than 10 µM; in the assay on SK-OV-3 ovarian it was more than 100 µM.

In the case of `CCOP(=O)(OCC)C(NC(c1ccccc1)c1ccccc1)c1ccccc1` (stereo not drawn), the GI50 in the assay with CAKI-1 renal is 10.4 µM; in the assay on HCC-2998 colon, 14.8 µM; in the assay with SNB-75 CNS, 21.7 µM; in the assay on A549 NSCLC, 15 µM; in the assay with SF-539 CNS it was 17.2 µM; in the assay on SW-620 colon, 15 µM. The GI50 in the assay on SK-MEL-28 melanoma is 41.1 µM; with OVCAR-3 ovarian, 3.66 µM; with SK-OV-3 ovarian it was 24.3 µM. Moreover, the TGI came to 22.2 µM in the assay on CAKI-1 renal; 29.5 µM in the assay on HCC-2998 colon; 45.3 µM in the assay on SNB-75 CNS; 30 µM in the assay with A549 NSCLC; 33.1 µM in the assay with SF-539 CNS; 31.7 µM with SW-620 colon. Besides, the TGI in the assay with SK-MEL-28 melanoma was more than 100 µM; with OVCAR-3 ovarian, 18.9 µM; in the assay on SK-OV-3 ovarian, 52 µM.

`O=C(O)C(=Cc1ccnc2ccccc12)C(=O)O`: the TGI with CAKI-1 renal, in the assay on SNB-75 CNS, with A549 NSCLC, in the assay with SF-539 CNS, with NCI-H226 lung and in the assay with SW-620 colon was more than 100 µM in each case. The TGI with SK-MEL-28 melanoma, in the assay with OVCAR-3 ovarian and in the assay with SK-OV-3 ovarian was more than 100 µM in each case.

On to `COc1ccc(C=C2C(=O)OC(C)(C)OC2=O)cc1OC`, for which the TGI in the assay on CAKI-1 renal, in the assay on HCC-2998 colon, with SNB-75 CNS, in the assay on A549 NSCLC, with SW-620 colon and with SK-MEL-28 melanoma was more than 100 µM throughout. For the same molecule, the TGI in the assay with OVCAR-3 ovarian and with SK-OV-3 ovarian was more than 100 µM each time.

For `C/C(=N/S(=O)(=O)c1ccc(Cl)c(Cl)c1)OCC(C)(C)C`, the TGI with CAKI-1 renal, with SNB-75 CNS, in the assay with A549 NSCLC, in the assay on SF-539 CNS, with NCI-H226 lung and in the assay on SW-620 colon was more than 100 µM in each case. Besides, the TGI in the assay on SK-MEL-28 melanoma, with OVCAR-3 ovarian and in the assay with SK-OV-3 ovarian was more than 100 µM throughout.

As for `Nc1ccccc1C#C/C=C\C#Cc1ccccc1C(F)(F)F`, the GI50 was 1.1 µM in the assay with CAKI-1 renal; 0.0869 µM in the assay on SNB-75 CNS; 0.722 µM with A549 NSCLC; 0.669 µM with SF-539 CNS; 0.233 µM in the assay on NCI-H226 lung; 1.5 µM in the assay on SW-620 colon. Moreover, the GI50 was 18.2 µM with SK-MEL-28 melanoma, 0.673 µM with OVCAR-3 ovarian and 0.888 µM in the assay on SK-OV-3 ovarian. For the same molecule, the TGI turned out to be 10.1 µM in the assay with CAKI-1 renal; 18.8 µM in the assay on SNB-75 CNS; 15.5 µM in the assay with A549 NSCLC; 3.55 µM in the assay on SF-539 CNS; 19.3 µM in the assay with NCI-H226 lung; 41 µM in the assay with SW-620 colon. Further, the figures for the TGI with SK-MEL-28 melanoma, in the assay on OVCAR-3 ovarian and in the assay on SK-OV-3 ovarian were more than 100 µM, 1.89 µM and 24.7 µM, respectively.

`CC(O)/C=C/C(CCC(C)CO)C(C)C` (stereo not drawn): the TGI in the assay with CAKI-1 renal, in the assay on HCC-2998 colon, with SNB-75 CNS, with A549 NSCLC, in the assay with SF-539 CNS and in the assay with SW-620 colon was more than 100 µM in each case. Further, the TGI with SK-MEL-28 melanoma, in the assay on OVCAR-3 ovarian and with SK-OV-3 ovarian was more than 100 µM each time.

Turning to `O=C1CCC(Cc2ccc(Cl)cc2Cl)C(=O)N1` (stereo not drawn), the TGI in the assay with CAKI-1 renal, in the assay with SNB-75 CNS, in the assay on A549 NSCLC, in the assay on SF-539 CNS, in the assay on NCI-H226 lung and with SW-620 colon was more than 100 µM in each case. The TGI with SK-MEL-28 melanoma, in the assay with OVCAR-3 ovarian and in the assay with SK-OV-3 ovarian was more than 100 µM in each case.

Turning to `CC(C)NCCNC(=O)c1ccccc1Nc1c(Cl)cccc1Cl`, the TGI turned out to be 16.3 µM in the assay with SNB-75 CNS; 33.9 µM in the assay on A549 NSCLC; 30.2 µM in the assay on SF-539 CNS; 30.1 µM with NCI-H226 lung; 30.4 µM in the assay on SW-620 colon; 28.1 µM in the assay on SK-MEL-28 melanoma. Also, the TGI came to 26.6 µM with OVCAR-3 ovarian and 28 µM in the assay on SK-OV-3 ovarian.

With `O=C1C(Cl)C(c2cccc(O)c2)N1n1cnc2ccccc2c1=O` (stereo not drawn), the TGI in the assay on CAKI-1 renal, in the assay with HCC-2998 colon, in the assay with SNB-75 CNS, in the assay on A549 NSCLC, in the assay on NCI-H226 lung and with SW-620 colon was more than 100 µM in each case. The TGI in the assay on SK-MEL-28 melanoma, in the assay with OVCAR-3 ovarian and with SK-OV-3 ovarian was more than 100 µM in each case.

As to `Oc1ccc(Cc2ccc(O)c3ncccc23)c2cccnc12`, the GI50 with CAKI-1 renal is 0.341 µM; in the assay on HCC-2998 colon, 0.524 µM; with SNB-75 CNS it was 0.0368 µM; with A549 NSCLC it was 0.0371 µM; in the assay on NCI-H226 lung, 0.373 µM; in the assay on SW-620 colon, 0.0417 µM. The GI50 with SK-MEL-28 melanoma is 0.0607 µM; in the assay with OVCAR-3 ovarian, 0.138 µM; with SK-OV-3 ovarian it was 0.214 µM. Further, the TGI is more than 100 µM in the assay on CAKI-1 renal; more than 100 µM in the assay with HCC-2998 colon; more than 100 µM with SNB-75 CNS; 73.9 µM in the assay with A549 NSCLC; 42.7 µM in the assay on NCI-H226 lung; more than 100 µM with SW-620 colon. The TGI was more than 100 µM in the assay with SK-MEL-28 melanoma, more than 100 µM in the assay with OVCAR-3 ovarian and 0.653 µM with SK-OV-3 ovarian.

`Cc1cn(C2CC(F)C(CO)O2)c(=O)[nH]c1=O` (stereo not drawn): the GI50 with CAKI-1 renal, in the assay with HCC-2998 colon, with A549 NSCLC, in the assay with NCI-H226 lung, in the assay with SK-MEL-28 melanoma and with OVCAR-3 ovarian was more than 100 µM each time. For the same molecule, the GI50 with SK-OV-3 ovarian is more than 100 µM. The TGI in the assay with CAKI-1 renal, in the assay with HCC-2998 colon, with A549 NSCLC, with NCI-H226 lung, in the assay with SK-MEL-28 melanoma and with OVCAR-3 ovarian was more than 100 µM in each case. For the same molecule, the TGI in the assay on SK-OV-3 ovarian is more than 100 µM.
